“Also recorded” adds a separate entry of the source.
Experiments:
[1] = test system: scopolamine model of poor memory; experiment: Y-maze test (spontaneous alternation behavior) in mice given scopolamine; format: in vivo; details: for enhancing effect on the memory and learning function and the cognitive function (spontaneous alternation behavior rate): synthetic peptide 0.1-3 μmol/kg orally, scopolamine 0.80 mg/kg i.p.
Method: FIG. 1A illustrates a summary of methods of evaluating the memory and learning function and the cognitive function. To 6-week-old male CD-1 mice, 1 mg/kg of the peptide extract or 0.1-3 μmol/kg of a synthetic peptide is orally administered forcibly into stomach and 40 minutes later 0.80 mg/kg of scopolamine hydrochloride was administered intraperitoneally to cause memory impairment. 20 minutes after the intraperitoneal administration of scopolamine, the Y-maze test was conducted to evaluate the spontaneous alternation behavior.
Mice originally have a habit of selecting a route different from the route selected immediately before. Therefore a mouse placed in a Y-maze having 3 arms equivalent in width, length, and the like normally enters the arm different from the arm that the mouse entered immediately before. The Y-maze test is a test to evaluate the short-term memory using the habit of mice.
In the Y-maze test, a Y-maze was used as an experimental apparatus having 3 arms each connected at an angle of 120 degrees and each having a length of 25 cm, a wall high of 20 cm, and a floor width of 5 cm.
Mice were placed in the tip of one of the aims in the Y-maze and the orders of the arms that the mice entered when the mice were allowed to search freely for 8 minutes were recorded. The spontaneous alternation behavior is defined as the behavior in which a mouse selects and enters the different arm three times consecutively. […] 10 mice per group were used for the experiment and the average and the standard error were determined. [Examination of Enzymatic Agent]

TNF-α = experiment: Anti-inflammatory activity of isolated microglia (TNF-α in supernatant by ELISA after LPS and IFNγ); format: cell-based, mouse; details: 12 h pretreatment with 0, 25, 50 or 100 μM synthetic peptide; then LPS 5 ng/ml and IFNγ 0.5 ng/ml for 12 h; FIG. 11
Method: Brain tissue homogenate is obtained by treating the brain extirpated from a mouse with papain. After stopping the enzymatic reaction, microglia were allowed to interact with a pan-microglia marker, CD11b antibody (produced from Miltenyi Biotec) magnetically-labeled with microbeads and isolated by the MACS method.
Isolated microglia are cultured for 12 hours in a medium supplemented with various peptides. 5 ng/ml lipopolysaccharide (LPS, SIGMA-ALDRICH) and 0.5 ng/ml interferon γ(IFNγ, R & D systems) were then added and culture was continued for 12 hours. TNF-α contained in the culture supernatant was quantified with an ELISA kit (eBiosceince).
Peptides were synthesized based on the obtained amino acid sequences and the anti-inflammatory effect was evaluated. The isolated microglia are pretreated in a medium supplemented with 0, 25, 50, or 100 μM of a synthetic peptide ([…] (SEQ ID NO: 1), […] (SEQ ID NO: 17), AVPYP (SEQ ID NO: 6), SLPQ (SEQ ID NO: 9), YPE (SEQ ID NO: 12), WM (SEQ ID NO: 14), or WY (SEQ In NO: 13)) for 12 hours. As described above, LPS and IFN-γ were added to the medium and culture was continued for 12 hours. INF-α contained in the culture supernatant was measured by ELISA. The result is illustrated in FIG. 11. In FIG. 11, “CM1” indicates the result of […] (SEQ ID NO: 1), “CM2” indicates the result of […] […]

Molecule | enhancing effect on the memory and learning function and the cognitive function (spontaneous alternation behavior rate) [1] | enhancing effect on the memory and learning function ([1]; 1 μmol/kg to mice, FIG. 9A, 9B) | production of TNF-α (anti-inflammatory effect) (TNF-α)
KEMPFPKYPVEP (listed as Bos taurus) [casein-derived peptide of 12 amino acids, tested as synthetic peptide] | enhancement activity on the memory and learning function and the cognitive function | – | –
methionine-tryptophan [MW, reference compound] | had no enhancing effect on the memory and learning function and the cognitive function | – | –
TWY (listed as Bos taurus) [whey-derived peptide, tested as synthetic peptide] | exhibited the activity of enhancing the memory and learning function and the cognitive function in a concentration-dependent manner | – | –
PVEP (listed as Bos taurus) | – | had the enhancing effect on the memory and learning function at the similar level to that of the original amino acid sequence KEMPFPKYPVEP | –
VAGTWYS (listed as Bos taurus) [whey-derived peptide, tested as synthetic peptide] | exhibited the activity of enhancing the memory and learning function and the cognitive function in a concentration-dependent manner | – | –
tyrosine-tryptophan [YW, reference compound] | had no enhancing effect on the memory and learning function and the cognitive function | – | –
N[C@@H](Cc1c[nH]c2ccccc12)C(=O)O [W, tryptophan, reference compound] | had no effects | – | –
SLPQ (listed as Bos taurus) [casein-derived peptide, tested as synthetic peptide] | enhancement activity on the memory and learning function and the cognitive function | – | –
GYGGVSLP (listed as Bos taurus) [whey-derived peptide, tested as synthetic peptide] | exhibited the activity of enhancing the memory and learning function and the cognitive function in a concentration-dependent manner | – | –
TWYS (listed as Bos taurus) [whey-derived peptide, tested as synthetic peptide] | exhibited the activity of enhancing the memory and learning function and the cognitive function in a concentration-dependent manner | – | –
KPTPEGDLEI (listed as Bos taurus) [whey-derived peptide, tested as synthetic peptide] | exhibited the activity of enhancing the memory and learning function and the cognitive function in a concentration-dependent manner | – | –
VSLPEW (listed as Bos taurus) [whey-derived peptide, tested as synthetic peptide] | exhibited the activity of enhancing the memory and learning function and the cognitive function in a concentration-dependent manner | – | –
tryptophan-tyrosine [WY] | found to have an enhancing effect on the memory and learning function and the cognition function in a concentration-dependent manner; also recorded: enhancement activity on the memory and learning function and the cognitive function | – | particularly high anti-inflammatory effect
tryptophan-methionine [WM] | found to have an enhancing effect on the memory and learning function and the cognition function in a concentration-dependent manner; also recorded: enhancement activity on the memory and learning function and the cognitive function | – | –
AVPYP (listed as Bos taurus) [casein-derived peptide, tested as synthetic peptide] | enhancement activity on the memory and learning function and the cognitive function | – | –
YPE (listed as Bos taurus) [casein-derived peptide, tested as synthetic peptide] | enhancement activity on the memory and learning function and the cognitive function | – | –
GTWY (listed as Bos taurus) [whey-derived peptide, tested as synthetic peptide] | exhibited the activity of enhancing the memory and learning function and the cognitive function in a concentration-dependent manner | – | –
